Measurements taken from ChEMBL document CHEMBL6120946, “From Hit to Lead: Discovery of First-In-Class Furanone Glycoside D228 Derived from Chimonanthus salicifolius for the Treatment of Inflammatory Bowel Disease” (J Med Chem, 2024).
Active and inactive are the calls of the source. The calls are words filed in the database; no cut-off is given here.

What was measured:
Mus musculus [1] = experiment: Antiinflammatory activity in DSS-induced male C57BL/6 mouse model of inflammatory bowel disease assessed as downregulation of TRAF6 expression at 50 to 100 microM/Kg by Western blot analysis; format: functional, organism-based; conditions: dose 50-100 µM/Kg
Mus musculus [2] = experiment: Antiinflammatory activity in DSS-induced male C57BL/6 mouse model assessed as inhibition of IL-22 level in colon at 50 to 100 microM/Kg; format: functional, organism-based; conditions: dose 50-100 µM/Kg
[3] = Toxicity in female Kunming mouse assessed as effect on T-CHO level in serum at 100 to 500 mg/kg/day, po measured after 5 weeks; format: organism-based; conditions: in vivo, 840 h, dose 100-500 mg/kg/day
[4] = Toxicity in female Kunming mouse assessed as effect on lung to body weight ratio at 100 to 500 mg/kg/day, po measured after 5 weeks; format: organism-based; conditions: in vivo, 840 h, dose 100-500 mg/kg/day
[5] = Toxicity in female Kunming mouse assessed as effect on Cl inorganic salt level in serum at 100 to 500 mg/kg/day, po measured after 5 weeks; format: organism-based; conditions: in vivo, 840 h, dose 100-500 mg/kg/day
Mus musculus [6] = experiment: Antiinflammatory activity in DSS-induced male C57BL/6 mouse model of inflammatory bowel disease assessed as reduction in weight loss at 22.5 to 45 mg/kg/day, po via gavage measured upto 14 days; format: functional, organism-based; conditions: dose 22.5-45 mg/kg/day, time <= 14.0 day
Mus musculus [7] = experiment: Antiinflammatory activity in DSS-induced male C57BL/6 mouse model of inflammatory bowel disease assessed as inhibition of MPO expression at 50 to 100 microM/Kg, po by immunohistochemical analysis; format: functional, organism-based; conditions: dose 50-100 µM/Kg
Mus musculus [8] = experiment: Antiinflammatory activity in DSS-induced male C57BL/6 mouse model assessed as increase in IL-10 level in colon at 50 to 100 microM/Kg; format: functional, organism-based; conditions: dose 50-100 µM/Kg
[9] = Toxicity in female Kunming mouse assessed as effect on heart to body weight ratio at 100 to 500 mg/kg/day, po measured after 5 weeks; format: organism-based; conditions: in vivo, 840 h, dose 100-500 mg/kg/day
[10] = Toxicity in female Kunming mouse assessed as effect on AST level in serum at 100 to 500 mg/kg/day, po measured after 5 weeks; format: organism-based; conditions: in vivo, 840 h, dose 100-500 mg/kg/day
Mus musculus [11] = experiment: Antiinflammatory activity in DSS-induced male C57BL/6 mouse model of inflammatory bowel disease assessed as decrease in p38 phosphorylation level at 50 to 100 microM/Kg by Western blot analysis; format: functional, organism-based; conditions: dose 50-100 µM/Kg
[12] = Toxicity in female Kunming mouse assessed as effect on liver to body weight ratio at 100 to 500 mg/kg/day, po measured after 5 weeks; format: organism-based; conditions: in vivo, 840 h, dose 100-500 mg/kg/day
Mus musculus [13] = experiment: Antiinflammatory activity in DSS-induced male C57BL/6 mouse model of inflammatory bowel disease assessed as increase in colon length at 22.5 mg/kg/day, po via gavage measured upto 14 days relative to control; format: functional; conditions: time <= 14 day
[14] = Toxicity in male Kunming mouse assessed as effect on GGT level in serum at 100 to 500 mg/kg/day, po measured after 5 weeks; format: organism-based; conditions: in vivo, 840 h, dose 100-500 mg/kg/day
[15] = Toxicity in male Kunming mouse assessed as effect on lung at 100 to 500 mg/kg/day, po measured after 5 weeks by H and E staining based analysis; format: organism-based; conditions: in vivo, 840 h, dose 100-500 mg/kg/day
[16] = Toxicity in male Kunming mouse assessed as effect on CK level in serum at 100 to 500 mg/kg/day, po measured after 5 weeks; format: organism-based; conditions: in vivo, 840 h, dose 100-500 mg/kg/day
[17] = Toxicity in female Kunming mouse assessed as effect on kidney to body weight ratio at 100 to 500 mg/kg/day, po measured after 5 weeks; format: organism-based; conditions: in vivo, 840 h, dose 100-500 mg/kg/day
[18] = Acute toxicity in male Kunming mouse assessed as effect on kidney 5 g/Kg, po measured after 5 weeks; format: organism-based; conditions: in vivo, 5000 mg/kg, 840 h
[19] = Toxicity in male Kunming mouse assessed as effect on TBIL level in serum at 100 to 500 mg/kg/day, po measured after 5 weeks; format: organism-based; conditions: in vivo, 840 h, dose 100-500 mg/kg/day
[20] = Toxicity in male Kunming mouse assessed as effect on lung to body weight ratio at 100 to 500 mg/kg/day, po measured after 5 weeks; format: organism-based; conditions: in vivo, 840 h, dose 100-500 mg/kg/day
[21] = Acute toxicity in male Kunming mouse assessed as effect on body weight loss 5 g/Kg, po measured after 5 weeks; format: organism-based; conditions: in vivo, 5000 mg/kg, 840 h
[22] = Acute toxicity in female Kunming mouse assessed as effect on lung 5 g/Kg, po measured after 5 weeks; format: organism-based; conditions: in vivo, 5000 mg/kg, 840 h
[23] = Acute toxicity in female Kunming mouse assessed as effect on heart 5 g/Kg, po measured after 5 weeks; format: organism-based; conditions: in vivo, 5000 mg/kg, 840 h
[24] = Toxicity in female Kunming mouse assessed as lethal dose administered as po measured after 5 weeks; format: organism-based; conditions: in vivo
Mus musculus [25] = experiment: Antiinflammatory activity in DSS-induced male C57BL/6 mouse model of inflammatory bowel disease assessed as amelioration of structural loss of colon at 50 to 100 microM/Kg by H and E staining based analysis; format: functional, organism-based; conditions: dose 50-100 µM/Kg
[26] = Toxicity in female Kunming mouse assessed as effect on GGT level in serum at 100 to 500 mg/kg/day, po measured after 5 weeks; format: organism-based; conditions: in vivo, 840 h, dose 100-500 mg/kg/day
Mus musculus [27] = experiment: Antiinflammatory activity in DSS-induced male C57BL/6 mouse model of inflammatory bowel disease assessed as restoration of colon length at 40 mg/kg/day, po via gavage measured after 14 days relative to control; format: functional; conditions: time 14 day
[28] = Metabolic stability in human plasma assessed as half life at pH 7.4 measured upto 60 mins by HPLC-MS analysis; format: ADME, cell-free
Mus musculus [29] = species: Mus musculus; experiment: Antiinflammatory activity in DSS-induced male C57BL/6 mouse model of inflammatory bowel disease assessed as reduction in p38 level; format: functional, organism-based
Mus musculus [30] = experiment: Antiinflammatory activity in DSS-induced male C57BL/6 mouse model of inflammatory bowel disease assessed as recovery from body weight loss at 10 mg/kg/day, ip measured after 14 days relative to control; format: functional; conditions: time 14 day
Mus musculus [31] = species: Mus musculus; experiment: Antiinflammatory activity in DSS-induced male C57BL/6 mouse model of inflammatory bowel disease assessed as reduction in TLR8 level; format: functional, organism-based
Mus musculus [32] = experiment: Antiinflammatory activity in DSS-induced male C57BL/6 mouse model of inflammatory bowel disease assessed as amelioration of infiltration of inflammatory cells at 50 to 200 microM/Kg by H and E staining based analysis; format: functional, organism-based; conditions: dose 50-200 µM/Kg

CC(=O)OC[C@H]1O[C@@H](OC2=C(C)OC(=C(C)C)C2=O)[C@H](OC(C)=O)[C@@H](OC(C)=O)[C@@H]1OC(C)=O
Activity (Mus musculus [1]): Active | Activity (Mus musculus [2]): Active | Activity [3]: Non-toxic | Activity [4]: Non-toxic | Activity [5]: Non-toxic | Activity (Mus musculus [6]): Active | Activity (Mus musculus [7]): Active | Activity (Mus musculus [8]): Active | Activity [9]: Non-toxic | Activity [10]: Non-toxic | Activity (Mus musculus [11]): Active | Activity [12]: Non-toxic | Activity (Mus musculus [13]): 45.3% | Activity [14]: Non-toxic | Activity [15]: Non-toxic | Activity [16]: Non-toxic | Activity [17]: Non-toxic | Activity [18]: Non-toxic | Activity [19]: Non-toxic | Activity [20]: Non-toxic | Activity [21]: Non-toxic | Activity [22]: Non-toxic | Activity [23]: Non-toxic | LD50 at 840 h [24]: > 500 mg/kg | Activity (Mus musculus [25]): Active | Activity [26]: Non-toxic | Activity (Mus musculus [27]): 28.6% | half-life [28]: 27.7 min

CC(C)=C1OC(C)=C(O[C@@H]2O[C@H](CO)[C@@H](O)[C@H](O)[C@H]2O)C1=O
Activity (Mus musculus [29]): Active | Activity (Mus musculus [30]): 37.5% | Activity (Mus musculus [31]): Active | Activity (Mus musculus [32]): Active
